# Where two headings read alike, the source gives them in different places.
# Tests used:
# [1] = system: B16F10 melanoma; assay: B16F10 melanoma syngeneic mouse tumor model, tumor growth; type: in vivo; conditions: for tumor growth at higher dosages: dosages higher than 10 mg/kg AA or 50 mg/kg NG; for B16F10 melanoma volume and weight: monotherapy, different doses; for melanoma progression: single treatment, 10 mg/kg AA or 50 mg/kg NG
# Excerpt: B16F10 melanoma syngeneic tumor model was generated in C57/Bl6 male mice (aged week 8 and 25 g body weight) via subcutaneous injection of 1×10^6 B16F10 cells. Lewis Lung Cancer syngeneic tumor model was also generated in C57/Bl6 male mice via subcutaneous injection of 2×10^6 luciferase-labeled LLC cells. When average tumor size reached 50 mm^3, mice were randomly divided into four groups respectively receiving drug administration as described below. Tumor progression was monitored by calculating tumor volume with vernier calipers as well as by bioluminescence imaging with IVIS Spectrum system (Xenogen, PerkinElmer, Inc., MA, USA). All animal experiments were carried out by a protocol approved by Animal Ethics Experimental Committee at the Chinese University of Hong Kong. Two TCM-based drugs were used in this study, including asiatic acid (95% HLPC-purified, Nanning, China) and naringenin (98% HLPC-purified, Xian, China). Both drugs were dissolved in DMSO and Tween-80 at the ratio of 9:1, which was further diluted 10 times with saline as working solution. […] Studies were carried out by a protocol approved by Animal Ethics Experimental Committee at the Chinese University of Hong Kong.
# [2] = system: B16F10 tumor cells; assay: TGF-beta1-induced VEGF mRNA expression by tumor cells (real-time PCR); type: cell-based
# [3] = system: B16F10 melanoma cells; assay: NK cell cytotoxicity assay (LDH release); type: cell-based, mouse; conditions: E:T ratio of 5:1, 10:1 and 20:1
# Method: It was next assessed whether the combination therapy enhances the tumor-killing capacity of NK cells by co-culturing […] NK cells with B16F10 melanoma cells at ratio of 5:1, 10:1 and 20:1. […] B16F10 melanoma cells were harvested as target cells and bone marrow-derived NK cells treated with AA or NG for 24 hours were harvested as effector cells. Cells were thoroughly washed and seeded in 96-well plates at the effector: target (E:T) ratios of 5:1, 10:1 and 20:1. Incubated in 5% CO2 incubator at 37° C. for 6 hours then detect the LDH release of each well with CytoTox 96® Non-Radioactive Cytotoxicity Assay kit (Promega Corporation, WI, USA). Read absorbance at 490 nm and calculated the percentage of NK cell mediated cytotoxicity with the following formula.
# [4] = system: p-Smad3, Smad7; assay: Western blot of p-Smad3 and Smad7 in bone marrow-derived NK cells with TGF-β1; type: cell-based, mouse; conditions: 10 μM of AA, 100 μM of NG; TGF-β1 (5 ng/ml)
# Method: FIGS. 14A-14C. […] (FIGS. 14A, 14B) Two-color immunofluorescence detecting NK1.1+ p-Smad3+ and NK1.1+ Smad7+ NK cells in LLC tumor microenvironment. NK1.1+ cells (green), p-Smad3+ or Smad7+ cells (red), DAPI (blue). […] Scale bar, […]. […] To further explore the mechanism of combination therapy facilitating NK cell immunity against cancer in TGF-β rich microenvironment, 10 μM of AA and 100 μM of NG (according to the molar ratio in vivo) were applied on bone marrow-derived NK cells in vitro. […] After euthanasia, bone marrow cells were isolated from C57BL/6 mice following the protocol as previously described (10). Bone marrow cells were then seeded at the density of 1×10^6 cells/ml in MEMα medium (Gibco, Thermo Fisher Scientific Inc., MA, USA) containing 10% FBS supplemented with 1 ng/ml IL-7, 10 ng/ml Flt3L, 30 ng/ml SCF, 50 ng/ml IL-15 (Peprotech, NJ, USA) and […] β-Mercaptoethanol (Gibco, Thermo Fisher Scientific Inc., MA, USA) and cultured for 4 days. Then transferred cells to MEMα medium containing 10% FBS supplemented with 50 ng/ml IL-15, 20 ng/ml IL-2 and […] β-Mercaptoethanol to induce NK cells maturation for another 3 days. Tumor tissues and cultured NK cells were lysed with ice-cold RIPA buffer, and then protein was isolated as previously described (2 6). Membranes were blocked with 5% BSA in PBS for 1 hour at room temperature before incubated with primary antibodies against Smad7, Id2, β-actin (Santa Cruz Biotechnology, Santa Cruz, Calif., USA), p-Smad3 and IRF2 (Cell signaling, MA, USA) overnight at 4° C., subsequently incubated with IRDye 800-conjugated secondary antibodies (Rockland immunochemicals, PA, USA). Target protein expression was then detected by LiCor/Odyssey infrared image system (LI-COR Biosciences, NE, USA) and analyzed with Image J software (NIH, Bethesda, Md., USA).
# [5] = type: in vivo
# Method: FIG. 1. Determination of a safe dosage of AA or NG in normal mice. Groups of 4 normal mice were treated with different dosages of asiatic acid (AA) or naringenin (NG) for two weeks and various parameters were measured to determine a safe dosage for the use as therapeutic dose in cancer-bearing mice. As indicated by a highlighted box, AA at 10 mg/kg and NG at 50 mg/kg was selected. Each bar represents the mean±SEM for groups of 4 mice. * p<0.05, ** p<0.01 compared to untreated mice (BLK)
# A safe dosage of HLPC-purified naringenin (NG) and asiatic acid (AA) was first determined in normal mice by peritoneal injection with different dosages of AA or NG for toxicity assays and a dose of AA at 10 mg/kg body weight and NG at 50 mg//Kg body weight is selected for further examination of the therapeutic efficacy on cancer (FIG. 1). The effects of combined use of a safe dosage of naringenin (NG, 10 mg/kg) and asiatic acid (AA, 50 mg/kg) at a ratio of […] was selected and the therapeutic effect on cancer was tested in two syngeneic mouse models of invasive lung carcinoma (LLC) and melanoma (B16F10). […] Thus, the combination of NG and AA presents as a new emerging and promising therapy for tumor.
# [6] = Systemic toxicity in B16F10 melanoma-bearing mice; conditions: mouse, in vivo
# Excerpt: FIG. 5. […] Each bar represents the mean±SEM for groups of 6 mice.
# [7] = system: Id2, IRF2; assay: Id2 and IRF2 expression in bone marrow-derived NK cells with TGF-β1 (real-time PCR, western blot); type: cell-based, mouse; conditions: bone marrow-derived NK cells in vitro
# Method: After euthanasia, bone marrow cells were isolated from C57BL/6 mice following the protocol as previously described (10). Bone marrow cells were then seeded at the density of 1×10^6 cells/ml in MEMα medium (Gibco, Thermo Fisher Scientific Inc., MA, USA) containing 10% FBS supplemented with 1 ng/ml IL-7, 10 ng/ml Flt3L, 30 ng/ml SCF, 50 ng/ml IL-15 (Peprotech, NJ, USA) and […] β-Mercaptoethanol (Gibco, Thermo Fisher Scientific Inc., MA, USA) and cultured for 4 days. Then transferred cells to MEMα medium containing 10% FBS supplemented with 50 ng/ml IL-15, 20 ng/ml IL-2 and […] β-Mercaptoethanol to induce NK cells maturation for another 3 days. […] Tumor tissues and cultured NK cells were lysed with ice-cold RIPA buffer, and then protein was isolated as previously described (2 6). Membranes were blocked with 5% BSA in PBS for 1 hour at room temperature before incubated with primary antibodies against Smad7, Id2, β-actin (Santa Cruz Biotechnology, Santa Cruz, Calif., USA), p-Smad3 and IRF2 (Cell signaling, MA, USA) overnight at 4° C., subsequently incubated with IRDye 800-conjugated secondary antibodies (Rockland immunochemicals, PA, USA). Target protein expression was then detected by LiCor/Odyssey infrared image system (LI-COR Biosciences, NE, USA) and analyzed with Image J software (NIH, Bethesda, Md., USA).
# [8] = system: bone marrow-derived NK cells; assay: Flow cytometry of bone marrow-derived NK cell differentiation (NK1.1+ CD122+); type: cell-based, mouse; conditions: for inhibitory effect of TGF-β1 on NK cell development (NK1.1+ CD122+): TGF-β1 (5 ng/ml)
# Method: FIGS. 15A-15B. Combination of AA and NG attenuates TGF-β1 induced inhibition on NK cell differentiation. […] (FIG. 15B) Flow cytometry detects that the effect of AA, NG, and their combination on bone marrow-derived NK differentiation in response to TGF-β1 (5 ng/ml). Each error bar represents the mean±SEM for groups of three independent experiments. *** p<0.001 compared to TGF-β1; ### p<0.001 as indicated.
# After euthanasia, bone marrow cells were isolated from C57BL/6 mice following the protocol as previously described (10). Bone marrow cells were then seeded at the density of 1×10^6 cells/ml in MEMα medium (Gibco, Thermo Fisher Scientific Inc., MA, USA) containing 10% FBS supplemented with 1 ng/ml IL-7, 10 ng/ml Flt3L, 30 ng/ml SCF, 50 ng/ml IL-15 (Peprotech, NJ, USA) and […] β-Mercaptoethanol (Gibco, Thermo Fisher Scientific Inc., MA, USA) and cultured for 4 days. Then transferred cells to MEMα medium containing 10% FBS supplemented with 50 ng/ml IL-15, 20 ng/ml IL-2 and […] β-Mercaptoethanol to induce NK cells maturation for another 3 days.
# Peripheral blood NK cells and cultured NK cells were analyzed using various markers as previously described (10), including rat anti-mouse CD16/CD32 antibody (BD Pharmingen, BD Biosciences, CA, USA), APC-conjugated anti-mouse NK1.1, PE-conjugated anti-mouse NKp46, PE-conjugated anti-mouse CD122 (eBioscience Inc., CA, USA) and Alexa 488-conjugated anti-mouse/human CD11b Antibody (Biolegend, CA, USA). After immunostaining, cells were resuspended with 200 μl staining buffer and analyzed with BD Accuri™ C6 Cytometer (BD Biosciences, CA, USA).
# [9] = system: NK1.1+ NK cells; assay: Two-color immunofluorescence of IFN-γ+ and granzyme B+ NK cells in LLC tumor microenvironment; type: in vivo, mouse
# Method: FIGS. 13A-13G. […] NK1.1+ cells (green), IFN-γ+ or granzyme B+ cells (red), DAPI (blue). Each error bar represents the mean±SEM for groups of three to four mice. * p<0.05, ** p<0.01, *** p<0.001 compared to Ctrl; ## p<0.01, ### p<0.001 as indicated. Scale bar, 100 μm. […] (FIGS. 13E, 13F) Effect of AA (10 μmol), NG ([…]), and their combination on levels of IFN-γ and granzyme B in supernatant of cultured splenic NK cells with TGF-β1 (5 ng/ml) detected by ELISA. (FIG. 13G) NK cell cytotoxicity assay with LLC as target cells at E:T ratio of 5:1, 10:1 and 20:1. Each error bar represents the mean±SEM for groups of three independent experiments. * p<0.05, ** p<0.01, *** p<0.001 compared to TGF-β1; # p<0.05, ## p<0.01, ### p<0.001 as indicated. Immunofluorescence staining was performed with 5 μm PLP fixed frozen sections of mouse tumor tissue to detect NK cell infiltration in tumor microenvironment and the protein levels of p-Smad3, Smad7, IFN-γ and granzyme B in these tumor infiltrated NK cells. Primary antibodies used for immunofluorescence staining include Alexa488 conjugated anti-mouse NK-1.1 (Biolegend, CA, USA), PE conjugated anti-mouse NKp46 (eBioscience Inc., CA, USA), anti-p-Smad2/3 (Santa Cruz Biotechnology, Santa Cruz, Calif.), anti-Smad7, anti-interferon gamma and anti-granzyme B (Abcam, MA, USA). All slides were mounted with DAPI containing mounting medium then analyzed with fluorescence microscope (Leica Microsystems, Wetzlar, Germany).
Compound,tumor growth at higher dosages [1],B16F10 melanoma volume and weight [1],melanoma progression [1],"TGF-beta1-induced angiogenesis (VEGF mRNA expression) ([2]; B16F10 cultured with TGF-beta1 (2 ng/ml), AA at luM)",NK cell-mediated cytotoxicity against melanoma cells [3],TGF-β1-increased phosphorylation level of Smad3 [4],TGF-β1-induced suppression of Smad7 expression [4],"safe dosage selected for use as therapeutic dose ([5]; mouse, in vivo, 2 weeks) [mg/kg]","systemic toxicity (peripheral white blood cell counts, serum LDH, AST and ALT, creatinine) [6]",TGF-β1-induced suppression of IRF2 [7],TGF-β1-induced suppression of Id2 [7],inhibitory effect of TGF-β1 on NK cell development (NK1.1+ CD122+) [8],IFN-γ-producing NK cells (IFN-γ+ NK1.1+ cells) [9],granzyme B-secreting NK cells (GB+ NK1.1+ cells) [9],"TGF-beta1-induced angiogenesis (VEGF mRNA expression), inhibition by AA with NG added ([2]; B16F10 with TGF-beta1 (2 ng/ml), NG from 0.5 to 250 uM added to AA at luM)","safe dosage selected for use as therapeutic dose ([5]; normal mice treated for two weeks, groups of 4) [mg/kg]","NK1.1+ CD122+ cell (immature NK cells) proportion ([8]; TGF-β1 at 5 ng/ml, 80% without TGF-β1) [%]"
"C[C@H]1[C@H](C)CC[C@]2(C(=O)O)CC[C@]3(C)C(=CC[C@@H]4[C@@]5(C)C[C@@H](O)[C@H](O)[C@@](C)(CO)[C@@H]5CC[C@]43C)[C@H]12 [AA, Asiatic acid]",no further significant improvement,Dose-dependent inhibitory effect,effectively inhibited,significantly inhibit,increased,attenuated,capable of restoring,10,do not cause systemic toxicity,significantly reduced,significantly reduced,moderately attenuated,significantly increased,significantly increased,–,–,–
"O=C1CC(c2ccc(O)cc2)Oc2cc(O)cc(O)c21 (centres unmarked) [NG, 5,7-dihydroxy-2-(4-hydroxyphenyl)chroman-4-one]",no further significant improvement,Dose-dependent inhibitory effect,effectively inhibited,–,increased,attenuated,capable of restoring,–,do not cause systemic toxicity,significantly reduced,significantly reduced,moderately attenuated,significantly increased,significantly increased,enhanced,50,–
TGF-β1: cytokine added to NK cell cultures to suppress NK cell development [reference compound],–,–,–,–,–,–,–,–,–,–,–,–,–,–,–,–,11

# Reference: US20180228815A1, “NARINGENIN AND ASIATIC ACID COMBINATION TREATMENT OF CANCERS” (The Chinese University of Hong Kong, priority 2016, published 2018)
